# Source: ChEMBL document CHEMBL1221272, “Discovery and structure-activity relationships of a series of pyroglutamic acid amide antagonists of the P2X7 receptor” (Bioorg Med Chem Lett, 2010)
# Active and inactive are the calls of the source. No cut-off for these calls is given here.
# Legend:
# P2X purinoceptor 7 [1] = biological target: T1, P2X purinoceptor 7 (Homo sapiens, UniProt Q99572); assay: Inhibition of human P2X7 receptor by ethidium bromide release assay
# T1 sequence (Q99572 whole entry): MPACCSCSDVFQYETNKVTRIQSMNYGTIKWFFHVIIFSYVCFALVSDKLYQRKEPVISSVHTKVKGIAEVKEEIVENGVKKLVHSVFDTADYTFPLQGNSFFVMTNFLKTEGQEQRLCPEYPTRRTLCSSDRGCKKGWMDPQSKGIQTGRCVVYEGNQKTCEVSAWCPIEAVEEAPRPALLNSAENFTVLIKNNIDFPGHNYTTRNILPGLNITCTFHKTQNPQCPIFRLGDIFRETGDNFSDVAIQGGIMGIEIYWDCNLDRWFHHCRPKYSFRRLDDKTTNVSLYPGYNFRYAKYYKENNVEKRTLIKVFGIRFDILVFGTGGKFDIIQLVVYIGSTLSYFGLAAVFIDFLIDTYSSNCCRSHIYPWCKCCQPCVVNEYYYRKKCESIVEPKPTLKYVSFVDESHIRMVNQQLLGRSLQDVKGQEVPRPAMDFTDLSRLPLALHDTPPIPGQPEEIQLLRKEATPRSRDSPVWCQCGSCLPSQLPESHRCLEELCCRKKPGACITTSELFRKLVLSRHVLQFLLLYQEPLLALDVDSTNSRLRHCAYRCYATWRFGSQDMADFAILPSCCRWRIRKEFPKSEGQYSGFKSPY
# Liver microsomes [2] = assay: Intrinsic clearance in rat liver microsome; assay type: ADME
# [3] = Lipophilicity, log D of the compound at pH 7.4; assay type: physicochemical; conditions: buffer
# P2X purinoceptor 7 [4] = biological target: T2, P2X purinoceptor 7 (Rattus norvegicus, UniProt Q64663); assay: Inhibition of rat P2X7 receptor by ethidium bromide release assay
# T2 sequence (Q64663 whole entry): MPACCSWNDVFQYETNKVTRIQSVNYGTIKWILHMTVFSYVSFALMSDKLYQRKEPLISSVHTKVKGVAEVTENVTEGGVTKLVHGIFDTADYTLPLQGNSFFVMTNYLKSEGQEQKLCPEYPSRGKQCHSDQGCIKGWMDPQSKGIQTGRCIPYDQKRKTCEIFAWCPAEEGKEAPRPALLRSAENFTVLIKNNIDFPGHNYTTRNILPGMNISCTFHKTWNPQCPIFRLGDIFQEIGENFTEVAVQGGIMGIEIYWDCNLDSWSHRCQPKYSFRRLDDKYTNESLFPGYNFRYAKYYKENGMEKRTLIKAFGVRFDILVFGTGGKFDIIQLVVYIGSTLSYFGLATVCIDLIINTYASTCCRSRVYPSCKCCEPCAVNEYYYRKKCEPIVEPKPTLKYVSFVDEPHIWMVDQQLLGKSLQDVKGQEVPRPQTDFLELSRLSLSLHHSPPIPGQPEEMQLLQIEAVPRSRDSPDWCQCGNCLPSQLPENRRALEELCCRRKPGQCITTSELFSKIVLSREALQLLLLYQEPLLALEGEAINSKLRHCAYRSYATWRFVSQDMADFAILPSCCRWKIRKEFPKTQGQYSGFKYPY
# Rattus norvegicus [5] = assay: Antiinflammatory activity in rat assessed as inhibition of FCA-induced hypersensitivity at 20 and 50 mg/kg, po bid for 5 days; assay type: functional, organism-based; design: dose 50 mg/kg
# Brain = assay: Drug level in rat brain at 50 mg/kg, po; assay type: ADME, organism-based; design: dose 50 mg/kg, route oral; conditions: in vivo, read-out: Drug uptake
# [6] = Oral bioavailability in rat at 3 mg/kg for 1 hrs; assay type: ADME, organism-based; conditions: in vivo
# [7] = Half life in rat at 1 mg/kg, iv for 1 hrs; assay type: ADME, organism-based; design: dose 1 mg/kg, route intravenous; conditions: in vivo
# [8] = Drug level in plasma of rat chronic constriction injury model at 20 mg/kg, po bid for 8 days measured on last day; assay type: ADME, organism-based; design: dose 20 mg/kg, route oral
# [9] = Cmax in rat at 3 mg/kg, po for 1 hrs; assay type: ADME, organism-based; design: dose 3 mg/kg, route oral; conditions: in vivo
# Liver microsomes [10] = assay: Intrinsic clearance in human liver microsome; assay type: ADME
# [11] = Blood clearance in rat at 1 mg/kg, iv for 1 hrs; assay type: ADME, organism-based; design: dose 1 mg/kg, route intravenous
# [12] = Drug level in brain of rat chronic constriction injury model at 20 mg/kg, po bid for 8 days measured on last day; assay type: ADME, organism-based; design: dose 20 mg/kg, route oral
# [13] = Volume of distribution at steady state in rat at 1 mg/kg, iv for 1 hrs; assay type: ADME, organism-based; design: dose 1 mg/kg, route intravenous; conditions: in vivo, read-out: Vdss
# Rattus norvegicus [14] = assay: Antiallodynic activity in rat chronic constriction injury model assessed as nerve injury-induced allodynia at 20 mg/kg, po bid measured post dose on day 1 of 8 days treatment; assay type: functional, organism-based; design: dose 20 mg/kg
# Plasma = assay: Drug level in rat plasma at 50 mg/kg, po; assay type: ADME, organism-based; design: dose 50 mg/kg, route oral; conditions: in vivo, read-out: Drug uptake
# Rattus norvegicus [15] = assay: AUC in rat at 3 mg/kg, po for 1 hrs; assay type: ADME, organism-based, Plasma; design: dose 3 mg/kg, route oral; conditions: in vivo
# [16] = Solubility of the compound; assay type: physicochemical
# [17] = Tmax in rat at 3 mg/kg, po for 1 hrs; assay type: ADME, organism-based; design: dose 3 mg/kg, route oral; conditions: in vivo
# Rattus norvegicus [18] = assay: Antiallodynic activity in rat chronic constriction injury model assessed as nerve injury-induced allodynia at 20 mg/kg, po bid measured post dose on day 1 of 8 days treatment
compound,measurement,setting,value
CC(C)CN1C(=O)CC[C@H]1C(=O)NCc1ccc(F)cc1Cl,IC50,P2X purinoceptor 7 [1],398 nM
CN(Cc1ccc(Cl)cc1Cl)C(=O)[C@@H]1CCC(=O)N1C,IC50,P2X purinoceptor 7 [1],< 1000 nM
O=C(NCc1ccc(F)cc1Cl)[C@@H]1CCC(=O)N1c1ccccc1,IC50,P2X purinoceptor 7 [1],794 nM
CC(=O)N1CCC[C@H]1C(=O)NCc1ccc(F)cc1Cl,IC50,P2X purinoceptor 7 [1],100 nM
Cc1n[nH]c(C)c1CC(=O)NCc1ccc(Cl)cc1Cl,CL,Liver microsomes [2],1.3 mL/min/g
same,logD,[3],2.7
CCN1C(=O)CC[C@H]1C(=O)NCC1CCCCC1,IC50,P2X purinoceptor 7 [1],< 1000 nM
CCN1C(=O)CC[C@H]1C(=O)NCc1ccc(F)cc1Cl,CL,Liver microsomes [2],< 0.5 mL/min/g
same,IC50,P2X purinoceptor 7 [1],31.6 nM
CCN1CCC[C@H]1C(=O)NCc1ccc(F)cc1Cl,IC50,P2X purinoceptor 7 [1],< 1000 nM
CCN1C(=O)CC[C@H]1C(=O)NCc1ccccc1,IC50,P2X purinoceptor 7 [1],< 1000 nM
CC(C)N1C(=O)CCC1C(=O)NCc1ccc(F)cc1Cl (stereo not drawn),IC50,P2X purinoceptor 7 [4],> 10000 nM
same,IC50,P2X purinoceptor 7 [1],316 nM
same,logD,[3],2.6
CC(C)N1C(=O)CC[C@H]1C(=O)NCc1ccc(F)cc1Cl,IC50,P2X purinoceptor 7 [4],1580 nM
same,IC50,P2X purinoceptor 7 [1],100 nM
CN1C(=O)CC[C@H]1C(=O)NCc1ccc(F)cc1Cl,IC50,P2X purinoceptor 7 [1],100 nM
CN(C(=O)c1cc(Cl)c(=O)n(Cc2c(Cl)cccc2Cl)c1)c1ccccc1,CL,Liver microsomes [2],> 50 mL/min/g
same,IC50,P2X purinoceptor 7 [4],316 nM
same,IC50,P2X purinoceptor 7 [1],126 nM
same,logD,[3],4.4
O=C1CC[C@@H](C(=O)NCc2ccc(F)cc2Cl)N1,IC50,P2X purinoceptor 7 [1],< 1000 nM
Cc1ccc(-c2cc(C(F)(F)F)nn2-c2ccc(S(N)(=O)=O)cc2)cc1,Activity,Rattus norvegicus [5],inactive
O=C(NCc1ccc(F)cc1Cl)[C@@H]1CCC(=O)N1C1CCCC1,IC50,P2X purinoceptor 7 [1],501 nM
CCN1C(=O)CC[C@H]1C(=O)NCc1ccccc1OC,IC50,P2X purinoceptor 7 [1],< 1000 nM
CN1C(=O)CC[C@H]1C(=O)NCc1cccc(C(F)(F)F)c1Cl [GSK1482160],concentration,Brain,26.7 µM
same,bioavailability,[6],65%
same,half-life,[7],1.5 h
same,concentration at 192 h,[8],5.91 µM
same,Cmax,[9],2.45 µM
same,CL,Liver microsomes [10],< 0.5 mL/min/g
same,clearance,[11],9 mL/min/kg
same,IC50,P2X purinoceptor 7 [4],316 nM
same,IC50,P2X purinoceptor 7 [1],3.16 nM
same,concentration at 192 h,[12],3.36 µM
same,Vd,[13],1.1 L/kg
same,logD,[3],1.9
same,Activity,Rattus norvegicus [14],Active
same,concentration,Plasma,12.9 µM
same,AUC,Rattus norvegicus [15],73 kg·min/L
same,solubility,[16],970 µg/mL
same,Tmax,[17],1 h
same,Activity,Rattus norvegicus [18],Active
CCN1C(=O)CC[C@H]1C(=O)NCC12CC3CC(CC(C3)C1)C2,IC50,P2X purinoceptor 7 [1],79.4 nM
CCN1C(=O)CC[C@@H]1C(=O)NCc1ccc(F)cc1Cl,IC50,P2X purinoceptor 7 [1],158 nM
CCCN1C(=O)CC[C@H]1C(=O)NCc1ccc(F)cc1Cl,IC50,P2X purinoceptor 7 [1],158 nM
CCN1C(=O)CC[C@H]1C(=O)NCc1ccccc1C(F)(F)F,IC50,P2X purinoceptor 7 [1],631 nM
O=C(NCc1ccc(F)cc1Cl)[C@@H]1CCC(=O)N1C1CCC1,CL,Liver microsomes [2],2.3 mL/min/g
CCN1C(=O)CC[C@H]1C(=O)NCc1ccc(Cl)cc1,IC50,P2X purinoceptor 7 [1],631 nM
Cc1nn(-c2ccccc2)c(C)c1CC(=O)NCc1ccc(F)cc1Cl,CL,Liver microsomes [2],46 mL/min/g
same,logD,[3],3.4
CCN1C(=O)CC[C@H]1C(=O)NCc1ccccc1Cl,IC50,P2X purinoceptor 7 [1],631 nM
CCN1C(=O)CC[C@H]1C(=O)NCc1cccc(C(F)(F)F)c1,IC50,P2X purinoceptor 7 [1],100 nM
